Data reported in patent publication US10889573B2, “Anthelmintic quinoline-3-carboxamide derivatives” (Bayer Animal Health GMBH, priority 2016, dated 2021).

Columns and labels:
[1] = system: Dirofilaria immitis third-stage larvae; experiment: In vitro assay 4: Dirofilaria immitis (DIROIM L4), motility; conditions: 72 h, read-out: EC50 (reduction of motility)
[2] = system: Litomosoides sigmodontis third-stage larvae; conditions: 72 h, read-out: EC50 (reduction of motility)
Protocol: In Vitro Assay 5: Litomosoides sigmodontis (LTMOSI L3)
10 Litomosoides sigmodontis third-stage larvae, which were freshly isolated from the pleural cavity of an infected rodent, were added to wells of a microtitre plate containing a nutrient medium and the test compound in DMSO. Compounds were tested in concentration-response assay in duplicate. Larvae exposed to DMSO and no test compounds were used as negative controls. Larvae were evaluated after 72 h of incubation with the compound. Efficacy was determined as the reduction of motility in comparison to the negative control. Based on the evaluation of a wide concentration range, concentration-response curves as well as EC50-values were calculated.

Cooperia curticei = conditions: Cooperia curticei, 120 h, read-out: activity (larval mortality)
Protocol: In Vitro Assay 6: Cooperia curticei (COOPCU L3)
Solvent: dimethyl sulfoxide
Approximately 40 nematode larvae (Cooperia curticei) are transferred into a test tube containing the compound solution.
After 5 days percentage of larval mortality is recorded. 100% efficacy means all larvae are killed; 0% efficacy means no larvae are killed.

[3] = system: Dirofilaria immitis microfilariae; experiment: In vitro assay 3: Dirofilaria immitis microfilariae (DIROIM L1), motility; conditions: 72 h, read-out: EC50 (reduction of motility), 72 h incubation
Haemonchus contortus = conditions: 120 h, read-out: activity (larval mortality)
Protocol: In Vitro Assay 7: Haemonchus contortus (HAEMCO L3)
Solvent: dimethyl sulfoxide
Approximately 40 larvae of the red stomach worm (Haemonchus contortus) are transferred into a test tube containing compound solution.
After 5 days the percentage of larval mortality is recorded. 100% efficacy means all larvae are killed, 0% efficacy means no larvae are killed.

[4] = system: Nippostrongylus brasiliensis; experiment: In vitro assay 2: Nippostrongylus brasiliensis (NIPOBR), acetylcholine esterase readout; conditions: read-out: activity (reduction of AChE compared to negative control); for inhibition at 1 µg/mL: 1 μg/ml; for inhibition at 10 µg/mL: 10 μg/ml
Summary of the method: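 Readout was acetylcholine esterase activity released into the medium, compared with negative control, after exposing adult worms to compounds at final 10 ppm (10 μg/ml) or 1 ppm (1 μg/ml). Worms were first washed in antibiotic/amphotericin B-containing saline; compounds were dissolved in DMSO.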

C. elegans Slo-1a = C. elegans Slo-1a (Caenorhabditis elegans, UniProt Q95V25); conditions: pE50 (negative decadic logarithm of EC50), CHO cells expressing C. elegans Slo-1a, voltage sensitive dye
[5] = log P by HPLC on reversed phase columns (Method L0)
Protocol: Measurement of log P values was performed according to EEC directive 79/831 Annex V.A8 by HPLC (High Performance Liquid Chromatography) on reversed phase columns with the following methods: • ^[a] log P value is determined by measurement of LC-UV, in an acidic range, with 0.1% formic acid in water and acetonitrile as eluent (linear gradient from 10% acetonitrile to 95% acetonitrile). • ^[b] log P value is determined by measurement of LC-UV, in a neutral range, with 0.001 molar ammonium acetate solution in water and acetonitrile as eluent (linear gradient from 10% acetonitrile to 95% acetonitrile).
Calibration was done with straight-chain alkan-2-ones (with 3 to 16 carbon atoms) with known log P values (measurement of log P values using retention times with linear interpolation between successive alkanones).

Chain of C. elegans Slo-1a (Q95V25 whole entry): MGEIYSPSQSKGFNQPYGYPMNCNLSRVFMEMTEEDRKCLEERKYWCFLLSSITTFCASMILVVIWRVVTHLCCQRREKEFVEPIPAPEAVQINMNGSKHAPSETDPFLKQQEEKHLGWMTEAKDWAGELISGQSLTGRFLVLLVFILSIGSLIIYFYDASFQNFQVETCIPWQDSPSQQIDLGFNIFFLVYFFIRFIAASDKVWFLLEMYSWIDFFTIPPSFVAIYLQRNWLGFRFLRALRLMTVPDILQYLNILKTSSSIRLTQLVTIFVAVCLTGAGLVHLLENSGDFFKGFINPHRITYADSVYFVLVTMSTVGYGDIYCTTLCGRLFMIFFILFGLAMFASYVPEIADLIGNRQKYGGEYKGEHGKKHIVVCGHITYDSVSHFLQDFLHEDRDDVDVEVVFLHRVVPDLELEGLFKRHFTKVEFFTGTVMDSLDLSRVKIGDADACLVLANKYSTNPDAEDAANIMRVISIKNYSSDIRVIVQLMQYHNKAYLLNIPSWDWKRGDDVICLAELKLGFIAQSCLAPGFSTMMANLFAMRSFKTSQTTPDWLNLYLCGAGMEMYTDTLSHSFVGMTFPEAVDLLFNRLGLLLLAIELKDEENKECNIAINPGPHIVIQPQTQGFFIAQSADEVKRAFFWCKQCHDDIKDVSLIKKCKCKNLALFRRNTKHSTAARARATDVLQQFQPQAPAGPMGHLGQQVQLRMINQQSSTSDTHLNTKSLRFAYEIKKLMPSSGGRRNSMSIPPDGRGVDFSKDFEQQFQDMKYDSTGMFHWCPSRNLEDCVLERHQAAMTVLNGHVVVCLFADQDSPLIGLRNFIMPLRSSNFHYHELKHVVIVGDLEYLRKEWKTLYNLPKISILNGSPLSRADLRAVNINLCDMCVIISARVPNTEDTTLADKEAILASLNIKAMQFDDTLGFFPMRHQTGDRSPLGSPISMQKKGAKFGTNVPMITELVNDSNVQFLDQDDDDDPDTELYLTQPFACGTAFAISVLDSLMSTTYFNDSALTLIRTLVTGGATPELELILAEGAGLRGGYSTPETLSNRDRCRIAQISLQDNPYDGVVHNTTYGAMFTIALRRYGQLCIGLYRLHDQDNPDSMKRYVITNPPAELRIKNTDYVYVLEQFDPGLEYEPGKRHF

SMILES | EC50 [1] | EC50 [2] | mortality at 4 ppm (Cooperia curticei) | mortality at 20 ppm (Cooperia curticei) | EC50 [3] | mortality at 4 ppm (Haemonchus contortus) | mortality at 20 ppm (Haemonchus contortus) | inhibition at 1 µg/mL [4] | inhibition at 10 µg/mL [4] | EC50 (C. elegans Slo-1a) | chromatographic logP [5]
CCOc1c(C(=O)N[C@H]2CCc3ccccc32)cnc2c(-c3cc(Cl)cc(Cl)c3)cccc12 [Example 134, 8-(3,5-dichlorophenyl)-N-[(1S)-2,3-dihydro-1H-inden-1-yl]-4-ethoxyquinoline-3-carboxamide] | < 0.1 µg/mL | < 0.1 µg/mL | 100% | 100% | < 0.1 µg/mL | 100% | 100% | > 80% | > 80% |  | 
O=C(N[C@H]1CCOc2ccccc21)c1cnc2c(-c3cc(F)cc(Cl)c3)c(F)ccc2c1N1CCOCC1 [Example 143] | < 0.1 µg/mL | < 0.1 µg/mL | 100% | 100% | < 0.1 µg/mL | 100% | 100% | > 80% | > 80% | < 3.16 nM | 
CCOc1c(C(=O)N[C@H]2CCOc3ccccc32)cnc2c(-c3cc(Cl)cc(Cl)c3)cccc12 [Example 341] | < 0.1 µg/mL | < 0.1 µg/mL | 90% | 100% | < 0.1 µg/mL | 80% | 80% | > 80% | > 80% | < 3.16 nM | 
Cc1cc(-c2cc(Cl)cc(Cl)c2)c2ncc(C(=O)N[C@H]3CCOc4ccccc43)c(N(C)C)c2c1 [Example 12] | < 0.1 µg/mL | < 0.1 µg/mL |  |  | < 0.1 µg/mL |  | 80% | > 80% | > 80% | < 3.16 nM | 
O=C(N[C@H]1CCOc2ccccc21)c1cnc2c(-c3cc(Cl)cc(Cl)c3)cccc2c1N1CCC1 [Example 135, 4-(azetidin-1-yl)-8-(3,5-dichlorophenyl)-N-[(4S)-3,4-dihydro-2H-chromen-4-yl]quinoline-3-carboxamide] |  |  |  | 80% | < 1 µg/mL | 90% | 100% | > 80% | > 80% | < 3.16 nM | 1.9
CNc1c(C(=O)N[C@H]2CCOc3ccccc32)cnc2c(-c3cc(Cl)cc(Cl)c3)cccc12 [Example 24] | < 0.1 µg/mL | < 0.1 µg/mL | 100% | 100% | < 0.1 µg/mL | 100% | 100% | > 80% | > 80% | < 3.16 nM | 
O=C(N[C@H]1CCOc2ccccc21)c1cnc2c(-c3cccc(Cl)c3Cl)cccc2c1N1CCOCC1 [Example 52, 8-(2,3-dichlorophenyl)-N-[(4S)-3,4-dihydro-2H-chromen-4-yl]-4-(morpholin-4-yl)quinoline-3-carboxamide] | < 0.1 µg/mL | < 0.1 µg/mL | 100% | 100% | < 0.1 µg/mL | 100% | 100% | > 80% | > 80% | < 3.16 nM | 
COc1c(F)ccc(-c2cccc3c(N4CCOCC4)c(C(=O)N[C@H]4CCOc5ccccc54)cnc23)c1F [Example 53] | < 0.1 µg/mL | < 0.1 µg/mL | 100% | 100% | < 0.1 µg/mL | 80% | 100% | > 80% | > 80% | < 3.16 nM | 
CCc1cc(Cl)cc(-c2cccc3c(CC)c(C(=O)N[C@H]4CCOc5ccccc54)cnc23)c1 [Example 351, 8-(3-chloro-5-ethylphenyl)-N-[(4S)-3,4-dihydro-2H-chromen-4-yl]-4-ethylquinoline-3-carboxamide] | < 0.1 µg/mL |  |  |  | < 0.1 µg/mL |  |  |  |  | < 3.16 nM | 5.1
CN(c1c(C(=O)N[C@H]2CCOc3ccccc32)cnc2c(-c3cccc(Cl)c3Cl)cccc12)C1COC1 [Example 331, 8-(2,3-dichlorophenyl)-N-[(4S)-3,4-dihydro-2H-chromen-4-yl]-4-[methyl(oxetan-3-yl)amino]-quinoline-3-carboxamide] | < 0.1 µg/mL |  |  | 90% | < 0.1 µg/mL |  | 100% | > 80% |  | < 3.16 nM | 3.14
O=C(N[C@H]1CCc2ccccc21)c1cnc2c(-c3cc(Cl)cc(Cl)c3)cccc2c1Cl [Example 3, 4-chloro-8-(3,5-dichlorophenyl)-N-[(1S)-2,3-dihydro-1H-inden-1-yl]quinoline-3-carboxamide] | < 1 µg/mL | < 1 µg/mL |  |  | < 1 µg/mL |  |  |  |  | 3.16 to 31.6 nM | 
CCc1c(C(=O)N[C@H]2CCOc3ccccc32)cnc2c(-c3cc(Cl)cc(Cl)c3)cccc12 [Example 350, 8-(3,5-dichlorophenyl)-N-[(4S)-3,4-dihydro-2H-chromen-4-yl]-4-ethyl quino-line-3-carboxamide] | < 0.1 µg/mL | < 0.1 µg/mL | 100% | 100% | < 0.1 µg/mL | 100% | 100% | > 80% |  | < 3.16 nM | 5.06
O=C(N[C@H]1CCOc2ccccc21)c1cnc2c(-c3cc(Cl)cc(Cl)c3)cccc2c1N1CCOCC1 [Example 17] | < 0.1 µg/mL | < 0.1 µg/mL | 100% | 100% | < 0.1 µg/mL | 100% | 100% | > 80% | > 80% | < 3.16 nM | 
O=C(N[C@H]1CCOc2ccccc21)c1cnc2c(-c3cc(Cl)cc(Cl)c3)cccc2c1-c1ccncc1 [Example 396] | < 0.1 µg/mL | < 0.1 µg/mL | 100% | 100% | < 0.1 µg/mL | 90% | 100% | > 80% |  | < 3.16 nM | 
O=C(N[C@H]1CCOc2ccccc21)c1cnc2c(-c3cc(Cl)cc(Cl)c3)cccc2c1N1CC(F)(F)C1 [Example 394] | < 0.1 µg/mL | < 0.1 µg/mL |  | 80% | < 0.1 µg/mL | 80% | 80% | > 80% |  | 3.16 to 31.6 nM | 
CN(C)c1c(C(=O)N[C@H]2CCOc3ccccc32)cnc2c(-c3cccc4[nH]ccc34)cccc12 [Example 73] | < 0.1 µg/mL | < 1 µg/mL |  |  | < 0.1 µg/mL |  |  | > 80% | > 80% | 3.16 to 31.6 nM | 
COc1c(C(=O)N[C@H]2CCOc3ccccc32)cnc2c(-c3cc(Cl)cc(Cl)c3)cccc12 [Example 373, 8-(3,5-dichlorophenyl)-N-[(4S)-3,4-dihydro-2H-chromen-4-yl]-4-methoxyquinoline-3-carboxamide] | < 1 µg/mL | < 1 µg/mL | 100% | 100% |  | 100% | 100% | > 80% | > 80% | < 3.16 nM | 
CCOC(=O)CN(C)c1c(C(=O)N[C@H]2CCOc3ccccc32)cnc2c(-c3cc(Cl)cc(Cl)c3)cccc12 [Example 137, ethyl N-{8-(3,5-dichlorophenyl)-3-[(4S)-3,4-dihydro-2H-chromen-4-ylcarbamoyl]quinolin-4-yl}-N-methylglycinate] |  |  |  |  | < 1 µg/mL |  | 80% | > 80% | > 80% | < 3.16 nM | 4.8
CN(C)c1c(C(=O)N[C@H]2CCOc3ccccc32)cnc2c(-c3cc(Cl)ccc3F)cccc12 [Example 37] | < 0.1 µg/mL | < 0.1 µg/mL | 100% | 100% | < 0.1 µg/mL | 100% | 100% | > 80% | > 80% | < 3.16 nM | 
CN(CC(=O)O)c1c(C(=O)N[C@H]2CCOc3ccccc32)cnc2c(-c3cc(Cl)cc(Cl)c3)cccc12 [Example 150, N-{8-(3,5-dichlorophenyl)-3-[(4S)-3,4-dihydro-2H-chromen-4-ylcarbamoyl]quinolin-4-yl}-N-methylglycine] | < 1 µg/mL |  |  | 100% | < 0.1 µg/mL | 80% | 90% | > 80% |  | 3.16 to 31.6 nM | 3.1
CN(C)c1c(C(=O)N[C@H]2CCOc3ccccc32)cnc2c(-c3cccc(Cl)c3)c(F)ccc12 [Example 141, 8-(3-chlorophenyl)-N-[(4S)-3,4-dihydro-2H-chromen-4-yl]-4-(dimethyl-amino)-7-fluoroquinoline-3-carboxamide] | < 0.1 µg/mL | < 0.1 µg/mL |  |  | < 0.1 µg/mL |  |  |  | > 80% | < 3.16 nM | 
